The values below come from BindingDB's records for PubMed 1320692 (Ciba-Geigy, 1992).

“And” between values parts separate entries of the source, which are not always exact repeats. Equal values may be shown once.

The target in this test is T1, Leukotriene B4 receptor 2 (Homo sapiens, UniProt Q9NPC1).
T1 sequence (Q9NPC1 whole entry): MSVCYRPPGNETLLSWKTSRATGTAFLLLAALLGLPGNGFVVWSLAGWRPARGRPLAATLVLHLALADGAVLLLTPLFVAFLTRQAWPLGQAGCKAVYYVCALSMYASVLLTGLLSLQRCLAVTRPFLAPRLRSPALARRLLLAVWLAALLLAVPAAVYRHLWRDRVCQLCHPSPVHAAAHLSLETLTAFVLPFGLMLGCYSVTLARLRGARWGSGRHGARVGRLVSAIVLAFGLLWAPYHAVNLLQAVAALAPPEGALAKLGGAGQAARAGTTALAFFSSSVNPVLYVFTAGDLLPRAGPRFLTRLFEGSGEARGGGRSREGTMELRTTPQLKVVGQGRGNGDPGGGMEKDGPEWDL
The Ki is a measure of affinity in units of concentration, obtained from inhibition or displacement. High values mean weaker binding, low ones tighter binding. As to `COc1ccc(/C=C/CCCCOc2ccc(C(=O)c3cccc(C(=O)O)c3)cc2CCC(=O)O)cc1` [(Z)-3-{3-(2-Carboxy-ethyl)-4-[6-(4-methoxy-phenyl)-hex-5-enyloxy]-benzoyl}-benzoic acid], the Ki is 35 nM and 15 nM. `CCCCCCCCC(O)/C=C/c1cccc(C)n1` (centres undefined) [CGS 23114] yielded an inhibition constant (Ki) of 885 nM. `COc1ccc(/C=C/CCCCOc2ccc(Oc3cccc(C(=O)O)c3)cc2CCC(=O)O)cc1` [CGS 23130]: the Ki was 24 nM and 8 nM.

Consider `CCc1cc(C(C)=O)c(O)cc1OCCCCC(C)(C)c1nnn[nH]1` [CGS 23167], for which the Ki was 293 nM and 364 nM.
